Data from PubChem BioAssay AID1250 (SRMLSC, 2008).
Activity calls are given as the source filed them.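 How the source made its calls: active means inhibition of at least 30% at one or more tested concentrations; inactive means inhibition below 30% at every dose.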

Assay: antiviral protection against BTV-induced cell death – arbovirus, BSR cells, confirmation (AID 1250)
Conditions: BSR cells, Bluetongue virus CPE, ATP luminescence, 72 h; at 20 µM (top of the series)
With `COCCn1c(SC(C)C(=O)Nc2ncc(Cl)cc2Cl)nc2ccccc21` (stereo not drawn) the CPE inhibition was 21% (inactive). In the case of `CCOc1ccc(NC(=O)Nc2cc(-c3ccccc3)sc2C(=O)OC)cc1`, the CPE inhibition is reported as 14.7% (inactive). In the case of `CCOC(=O)c1c(-c2ccc(C)cc2)csc1NC(=O)C1CC=CCC1C(=O)O` (stereo not drawn), the CPE inhibition is reported as 18.1% (inactive). For `O=C1CC(N2CCC(Cc3ccccc3)CC2)C(=O)N1CCc1ccccc1` (stereo not drawn), the CPE inhibition was 3.89% (inactive). For `CC(=O)c1ccc(N2CCN(C(=O)c3cc(-c4cccnc4)nc4ccc(Br)cc34)CC2)cc1`, the CPE inhibition was 0.41% (inactive). In the case of `Cc1cc(F)ccc1S(=O)(=O)Nc1ncnc2scc(-c3ccc(F)cc3)c12`, the CPE inhibition is reported as 21.7% (inactive). For `CC(C)CCN(C(=S)NC(=O)C1CCCCC1)c1c(N)n(Cc2ccccc2)c(=O)[nH]c1=O`, the CPE inhibition was 7% (inactive). With `Cc1cccc(S(=O)(=O)Nc2nc3ccccc3nc2NCc2ccco2)c1` the CPE inhibition was 12.1% (inactive). In the case of `Brc1ccccc1/C=N/Nc1ccc2ccccc2n1`, the CPE inhibition is reported as 14.7% (inactive). For `Fc1ccccc1N1CCN(c2ncnc3[nH]ncc23)CC1`, the CPE inhibition was 7.21% (inactive). In the case of `CCOC(=O)C1(Cc2cccc(OC)c2)CCN(Cc2cccc(OC)c2O)CC1`, the CPE inhibition is reported as 24.8% (inactive). In the case of `CCOc1ccc(-c2csc(NC(=O)CSCC(=O)O)n2)c2ccccc12`, the CPE inhibition is reported as 17.7% (inactive). For `CC(C)(O[C@@H]1O[C@H](CO)[C@@H](O)[C@H](O)[C@H]1O)[C@H]1Cc2cc3ccc(=O)oc3cc2O1`, the CPE inhibition was 0.22% (inactive). With `Cc1ccc(NC2c3ncccc3C(=O)N2C2CCCCC2)cc1C` (stereo not drawn) the CPE inhibition was 12.7% (inactive). For `CCc1cc2c(=O)c(-c3cscn3)coc2c(CN(C)C)c1O`, the CPE inhibition was 5.92% (inactive). In the case of `COc1ccccc1NC(=S)NCCSc1ccc(C)cc1`, the CPE inhibition is reported as 10.1% (inactive). With `CC1(C)C2CCC(C2)C1(C)NC(=O)CNCc1cccs1` (stereo not drawn) the CPE inhibition was 2.65% (inactive). In the case of `OC(c1ccccc1)C1CN(Cc2ccccc2)CCC1(O)c1ccccc1` (stereo not drawn), the CPE inhibition is reported as 20.9% (inactive). In the case of `CCCS(=O)(=O)n1nc(-c2ccc(OC)cc2OC)cc1N`, the CPE inhibition is reported as -1.58% (inactive). With `N#Cc1c(C(F)(F)F)cc(-c2ccc(Cl)cc2)[nH]c1=O` the CPE inhibition was 25.9% (inactive). With `Cc1ccccc1CSc1nnc(NC(=O)C2COc3ccccc3O2)s1` (stereo not drawn) the CPE inhibition was 18.9% (inactive). For `O=C(CCCN1C(=O)/C(=C/c2cccs2)SC1=S)Nc1cccc(C(=O)O)c1`, the CPE inhibition was 1.7% (inactive). With `Cc1ccccc1OCCSCc1nc2ccccc2[nH]1` the CPE inhibition was 24.9% (inactive). With `COc1ccc(-c2noc(-c3ccccc3-c3ccccc3)n2)cc1OC` the CPE inhibition was 10.8% (inactive). With `CCOC(=O)c1csc(NC(=O)CC2CCCC2)n1` the CPE inhibition was 6.07% (inactive). For `O=S(=O)(c1ccc(Oc2ccc(Cl)cc2)c(S(=O)(=O)N2CCCCC2)c1)N1CCCCC1`, the CPE inhibition was 22.6% (inactive). In the case of `COc1ccc(Cl)cc1NC(=O)C1COc2ccccc2O1` (stereo not drawn), the CPE inhibition is reported as 26.3% (inactive). In the case of `CC1=C(C(=O)OC2CCCCCCC2)C(c2cccc(O)c2)NC(=O)N1` (stereo not drawn), the CPE inhibition is reported as 7% (inactive). For `FC(F)(F)c1ccc(Oc2ccc3ccccc3c2Br)nc1`, the CPE inhibition was 1.17% (inactive). For `CCOC(=O)c1sc(NC(=S)NC(=O)c2cccc(Cl)c2)c(C(=O)OCC)c1C`, the CPE inhibition was 1.04% (inactive). In the case of `COc1cc2c(cc1NC(=O)CC1SC(N3CCCC3)=NC1=O)oc1ccccc12` (stereo not drawn), the CPE inhibition is reported as 13.7% (inactive). For `Cc1ccc(C)c(Cn2nnc3c(=O)[nH]c(C(=O)Nc4ccc(F)cc4)nc32)c1`, the CPE inhibition was 11.9% (inactive). In the case of `CCOCCCNC(=S)NCCNc1nc2c(C)cccc2cc1C#N`, the CPE inhibition is reported as 7.38% (inactive). In the case of `O=C1NC(=Nc2ccc(Cl)cc2)SC1Cc1cccc(Cl)c1Cl` (stereo not drawn), the CPE inhibition is reported as 12.4% (inactive). With `COc1cccc(CN=C2Nc3ccccc3CS2)c1` the CPE inhibition was -0.42% (inactive). For `CCOC(=O)c1c(-c2ccc(C)c(C)c2)csc1NC(=O)C1CC=CCC1C(=O)O` (stereo not drawn), the CPE inhibition was 29.6% (inactive). With `CCOc1ccc(-n2c(C)cc(/C=C3/C(=N)N4C(=NC3=O)SN=C4S(C)(=O)=O)c2C)cc1` the CPE inhibition was 25.5% (inactive). In the case of `CC1=Nc2ccc(C)cc2/C1=C/c1c(N)n2c(S(=O)(=O)C(C)C)nsc2nc1=O`, the CPE inhibition is reported as 15.9% (inactive). In the case of `COc1ccc(-c2nnc(-c3ccc(Br)o3)o2)cc1OC`, the CPE inhibition is reported as 14.5% (inactive). For `C=CCn1c(SCC(=O)Nc2nc3ccccc3s2)nnc1-c1ccccc1O`, the CPE inhibition was 21.1% (inactive). With `COc1ccc(CN(C(=O)c2oc3ccccc3c2C)C2CCS(=O)(=O)C2)cc1OC` (stereo not drawn) the CPE inhibition was 18.3% (inactive). For `Cc1ccc(-n2cccc2/C=C2\C(=N)N3N=C(C(C)C)SC3=NC2=O)cc1`, the CPE inhibition was 25.2% (inactive). In the case of `O=C(CSc1ccccc1)Nc1cc(Cl)ccc1Oc1ccccc1`, the CPE inhibition is reported as 3.1% (inactive). For `CC(C)(C)c1ccc(N/N=C(\C#N)S(=O)(=O)C(C)(C)C)cc1`, the CPE inhibition was 23.9% (inactive). With `CNc1ccccc1C(C)(C)c1cc(-c2cccc(OC)c2)no1` the CPE inhibition was 7.83% (inactive). In the case of `Cc1nn(-c2ccccc2)c2nc(C(F)(F)F)[nH]c(=O)c12`, the CPE inhibition is reported as 20% (inactive). For `Cc1ccc(-n2cccc2/C=C2/C(=N)N3C(=NC2=O)SN=C3S(C)(=O)=O)cc1`, the CPE inhibition was 12.1% (inactive). For `O=S(=O)(Nc1ccc(-c2nnc(SCc3ccc(Cl)cc3)o2)cc1)c1ccccc1`, the CPE inhibition was 7.09% (inactive). For `FC(F)(F)c1cccc(Oc2ccc3c(C(F)(F)F)cc(C(F)(F)F)nc3n2)c1`, the CPE inhibition was 3.1% (inactive). With `O=C(O)c1ccccc1N/N=C\c1ccnc2ccccc12` the CPE inhibition was 12.3% (inactive). For `O=C(Nc1scc(-c2ccccc2)c1C(=O)O)c1ccco1`, the CPE inhibition was 10.9% (inactive). With `N=C1/C(=C/c2cccs2)C(=O)N=C2SN=C(SCc3ccccc3)N12` the CPE inhibition was 29.3% (inactive). In the case of `CCOC(=O)c1c(NC(=O)CSc2ccccc2C(=O)O)sc(C)c1C`, the CPE inhibition is reported as 19.3% (inactive). With `CC(C)CSC1=NSC2=NC(=O)/C(=C\c3cccs3)C(=N)N12` the CPE inhibition was 28.6% (inactive). With `Cc1nn(Cc2ccccc2)c(Cl)c1C(=O)NC1CCCc2ccccc21` (stereo not drawn) the CPE inhibition was 16.5% (inactive). With `C=CCn1c(N)c(C(=O)NCc2cccnc2)sc1=S` the CPE inhibition was 2.55% (inactive). For `O=C(Nc1ccn(Cc2ccccc2)n1)c1n[nH]c([N+](=O)[O-])c1Cl`, the CPE inhibition was 14% (inactive). For `O=C(O)c1cnc(-c2ccccc2)nc1Sc1ccccc1Cl`, the CPE inhibition was 11.8% (inactive). With `CCCC(=O)Oc1ccccc1C1SCc2cc(C)c(C)cc2CS1` the CPE inhibition was 6.38% (inactive). In the case of `O=C(Nc1sc2c(c1C(=O)O)CCCC2)c1cccs1`, the CPE inhibition is reported as 25.3% (inactive). In the case of `C=CCc1cccc2cc(C(=O)Nc3ccccc3C(=O)O)c(=O)oc12`, the CPE inhibition is reported as 17.4% (inactive). For `O=C1CC(c2ccc(Br)cc2)NC(c2ccc(Br)cc2)C1c1ccccc1` (stereo not drawn), the CPE inhibition was 7.99% (inactive). For `Cc1ccc(N2C(=O)C3CC(c4ccccc4)=C4C5C=CC(C6C(=O)N(c7ccc(C)cc7)C(=O)C56)C4C3C2=O)cc1` (stereo not drawn), the CPE inhibition was 11.8% (inactive). With `CCOC1=C/C(=C/c2c(N)n3nc(-c4ccccc4)sc3nc2=O)C=CC1=O` the CPE inhibition was 18% (inactive). For `Fc1ccc2nc(Nc3nc4c(F)cccc4s3)sc2c1`, the CPE inhibition was 20.9% (inactive). For `O=C(O)CSc1nnc(CNc2cccc(C(F)(F)F)c2)n1Cc1ccco1`, the CPE inhibition was 3.89% (inactive). For `N#CC(C#N)=Cc1cc2ccccc2nc1N1CCCCC1`, the CPE inhibition was 12.6% (inactive). In the case of `Cc1ccc(C(=O)c2coc3cc([N+](=O)[O-])c(O)c([N+](=O)[O-])c23)cc1`, the CPE inhibition is reported as 18.6% (inactive).
